Test results taken from patent publication US6610681B1, “Neurotherapeutic clavulanate composition and method” (Revaax Pharmaceuticals, LLC, priority 1999, dated 2003).

Legend:
[1] = in vivo; cited from earlier work
[2] = tested on: male Syrian golden hamsters; test: golden hamster seed finding model of anxiety; type: in vivo, Mesocricetus auratus
Description: Clavulanic acid (CLAV) is structurally similar to the beta-lactam antibiotics. A most robust and simple bioassay for screening beta-lactams for CNS activity is the golden hamster seed finding model of anxiety. Briefly, hamsters are deprived of food overnight. The following day they are exposed to the additional stress of being taken from their home cage and placed in a novel environment for a few minutes. This manipulation stimulates the release of the stress hormone cortisol (FIG. 13). During their absence from the home cage, sunflower seeds are hidden under the bedding in one of the corners. When returned to the home cage, hamsters routinely scramble along the walls for 1-2 min before settling down, locating and eating the seeds. However, animals treated with the benzodiazepine anxiolytic chlordiazepoxide find seeds in less than 10 sec.
Male, Syrian golden hamsters (Mesocricetus auratus) (120-130 g) obtained from Harlan Sprague-Dawley Laboratories (Indianapolis, Ind.) were housed individually in Plexiglas cages (24 cm×24 cm×20 cm), maintained on a reverse light:dark cycle (14L: 10D; lights on at 19:00 hr) and provided food and water ad libitum. A range of concentrations of CLAV (saline vehicle, 0.1, 1.0, 10, 100 1,000 ng/kg) were tested in six groups of hamsters (4-8/group)(FIG. 1). All tests were conducted during the dark phase of the circadian cycle under dim red illumination. Prior to testing all animals were fasted for 20-24 hrs. Ninety min after intraperitoneal (IP) injection of drug, animals were taken from their home cage and placed into a holding cage for 2 min. During their absence, six sunflower seeds were buried under the bedding in one corner of their home cage. Animals were placed back into their home cage randomly facing any one of the empty corners and timed for their latency to find the seeds in a five min observation period. Latency times were analyzed with a one-way ANOVA followed by Scheffe's post hoc tests. Assumption of equal variances was tested (Hartley's F-max=2.1 p>0.05)
It was hypothesized that CLAV functioned as an anxiolytic in the seed finding assay by blocking NAALADase activity in the brain. If this notion were true then it would be predicted that drugs known to block NAALADase should also enhance seed finding. To this end, animals were treated with N-acetyl-beta-aspartyl-glutamic acid (beta-NAAG), a competitive inhibitor of NAALADase (Serval et al., 1992) and tested in the seed finding model of anxiety. The study was similar to that outlined in Section I with one notable exception. […] Beta-NAAG (FW 304) was given in a dose of 3 ng in a volume of 1 μl saline ICV. The average adult hamster brain weights ca. 1.2 g of which 22% is extracellular fluid. The estimated beta-NAAG concentration was 11 ng/ml or 36 nM.
Two groups of six animals each were fasted overnight as previously described and tested the following day. One group was treated with beta-NAAG and the other saline vehicle and one hr later timed for latency to find the hidden sunflower seeds. A Student t-test for unpaired data was used for statistical comparisons.

[3] = tested on: male golden hamsters; test: resident/intruder paradigm of offensive aggression; type: in vivo, hamster; conditions: 3 ng ICV, after the seed finding assay
Description: Agonistic behavior can be classified as either offensive or defensive aggression (Blanchard and Blanchard, 1977; Adams, […]; Albert and Walsh, 1984). Offensive aggression is characterized by an aggressor initiating an attack on an opponent; while, defensive aggression lacks active approach. Both types of aggression have their own unique neurobehavioral systems. The stimuli that elicit offensive and defense attack are different, as are the sequences of behaviors that accompany each agonistic response. […] Offensive aggression is easily studied using male golden hamsters tested in a resident/intruder paradigm, an established model of offensive aggression (Ferris and Potegal 1988) in the context of defending the home burrow. Placing an unfamiliar male hamster into the home cage of another male hamster elicits a well-defined sequence of agonistic behaviors from the resident that includes offensive aggression.
Hamsters are nocturnal and as such all behavioral tests were performed during the first four hrs of the dark phase under dim red illumination. The resident was scored for offensive aggression, e.g., latency to bite the intruder, the total number of bites, total contact time with the intruder and flank marking over a 10 min test period (Ferris and Potegal, 1988). Flank marking is a form of olfactory communication in which a hamsters arches its back and rubs pheromone producing flank glands against objects in the environment (Johnston, 1986).
Five male golden hamsters (130-140 g) were given IP injections of CLAV (200 μg/kg) and saline vehicle in a volume of ca. 0.2 ml. […] Vehicle and CLAV treatments were counter balanced and randomized so all five animals received each treatment separated by at least 48 hrs. Animals were tested 90 min after treatment over a 10 min observation period. Latencies and contact time were analyzed with a two-way ANOVA. Non-parametric data, i.e., number of bites and flank marks were analyzed by Wilcoxon matched-pairs signed-ranks test.
The animals tested in this study were those used in Section IX. After the seed finding assay, beta-NAAG (n=6) and saline vehicle (n=6) treated animals remained in their home cage and were presented with a smaller, male intruder. The resident was scored for latency to bite, bites, contact time and flank marking over a 10 min observation period. Latency to bite and contact time between treatments were compared with Student t-tests. Non-parametric measures of bites and flank marks for beta-NAAG vs vehicle were compared with Mann-Whitney.

[4] = tested on: neurogenic peptidases (e.g., NAALADases); test: delivery of peptide directly into the brain, behavior; type: in vivo; conditions: effective amounts directly into the brain
[5] = tested on: male Wistar rats; conditions: 10-25 mg/kg, literature; cited from earlier work

CC(=O)N[C@@H](CC(=O)N[C@@H](CCC(=O)O)C(=O)O)C(=O)O [beta-NAAG, N-acetyl-beta-aspartyl-glutamic acid]
passage of the blood-brain barrier [1]: does not readily cross the blood-brain barrier
difference in latency to find the seeds vs saline vehicle ([2]; 3 ng in 1 μl ICV, one hr): significantly (p<0.001) different
measures of offensive aggression (latency to bite, bites, contact time, flank marking) vs vehicle [3]: no significant differences

Ala-D-γ-Glu-Lys-D-alanyl-D-alanine
behavioral characteristics compared with β-lactam compounds [4]: produced the same modified behavioral characteristics

CNC1=Nc2ccc(Cl)cc2C(c2ccccc2)=[N+]([O-])C1 [CDP, Chlordiazepoxide]
seed finding time ([2]; benzodiazepine anxiolytic, dose not given): less than 10 sec
motor activity [5]: depresses motor activity
